Measured values reported in the NIST ThermoML archive (doi:10.1016/j.fluid.2015.10.026).

Conditions: Liquid, Brillouin light scattering

CCOC(C)(C)C [2-ethoxy-2-methylpropane]
Conditions | speed of sound [m/s]
293.15 K, 10 kPa | 1059.2
293.15 K, 1000 kPa | 1060.3
293.15 K, 2500 kPa | 1070.5
293.15 K, 4000 kPa | 1080.8
293.15 K, 5500 kPa | 1091.1
293.15 K, 7000 kPa | 1101.5
293.15 K, 8500 kPa | 1111.9
293.15 K, 10000 kPa | 1122.4
303.15 K, 10 kPa | 1013
303.15 K, 1000 kPa | 1019.4
303.15 K, 2500 kPa | 1030.3
303.15 K, 4000 kPa | 1041.2
303.15 K, 5500 kPa | 1052
303.15 K, 7000 kPa | 1062.8
303.15 K, 8500 kPa | 1073.5
303.15 K, 10000 kPa | 1084.2
313.15 K, 10 kPa | 967.71
313.15 K, 1000 kPa | 978.21
313.15 K, 2500 kPa | 989.92
313.15 K, 4000 kPa | 1001.5
313.15 K, 5500 kPa | 1012.9
313.15 K, 7000 kPa | 1024.2
313.15 K, 8500 kPa | 1035.3
313.15 K, 10000 kPa | 1046.3
323.15 K, 20 kPa | 923.32
323.15 K, 1000 kPa | 936.6
323.15 K, 2500 kPa | 949.23
323.15 K, 4000 kPa | 961.61
323.15 K, 5500 kPa | 973.77
323.15 K, 7000 kPa | 985.68
323.15 K, 8500 kPa | 997.36
323.15 K, 10000 kPa | 1008.8
333.15 K, 40 kPa | 879.69
333.15 K, 1000 kPa | 894.61
333.15 K, 2500 kPa | 908.27
333.15 K, 4000 kPa | 921.59
333.15 K, 5500 kPa | 934.59
333.15 K, 7000 kPa | 947.25
333.15 K, 8500 kPa | 959.59
333.15 K, 10000 kPa | 971.59
343.15 K, 60 kPa | 836.71
343.15 K, 1000 kPa | 852.23
343.15 K, 2500 kPa | 867.04
343.15 K, 4000 kPa | 881.42
343.15 K, 5500 kPa | 895.38
343.15 K, 7000 kPa | 908.92
343.15 K, 8500 kPa | 922.03
343.15 K, 10000 kPa | 934.71
353.15 K, 90 kPa | 794.25
353.15 K, 1000 kPa | 809.46
353.15 K, 2500 kPa | 825.54
353.15 K, 4000 kPa | 841.11
353.15 K, 5500 kPa | 856.15
353.15 K, 7000 kPa | 870.68
353.15 K, 8500 kPa | 884.68
353.15 K, 10000 kPa | 898.16
363.15 K, 130 kPa | 752.18
363.15 K, 1000 kPa | 766.3
363.15 K, 2500 kPa | 783.78
363.15 K, 4000 kPa | 800.64
363.15 K, 5500 kPa | 816.89
363.15 K, 7000 kPa | 832.52
363.15 K, 8500 kPa | 847.54
363.15 K, 10000 kPa | 861.94
373.15 K, 180 kPa | 710.37
373.15 K, 1000 kPa | 722.76
373.15 K, 2500 kPa | 741.75
373.15 K, 4000 kPa | 760.03
373.15 K, 5500 kPa | 777.6
373.15 K, 7000 kPa | 794.46
373.15 K, 8500 kPa | 810.61
373.15 K, 10000 kPa | 826.04
383.15 K, 250 kPa | 668.66
383.15 K, 1000 kPa | 678.84
383.15 K, 2500 kPa | 699.46
383.15 K, 4000 kPa | 719.28
383.15 K, 5500 kPa | 738.29
383.15 K, 7000 kPa | 756.49
383.15 K, 8500 kPa | 773.88
383.15 K, 10000 kPa | 790.47
393.15 K, 340 kPa | 626.87
393.15 K, 1000 kPa | 634.52
393.15 K, 2500 kPa | 656.9
393.15 K, 4000 kPa | 678.37
393.15 K, 5500 kPa | 698.94
393.15 K, 7000 kPa | 718.61
393.15 K, 8500 kPa | 737.37
393.15 K, 10000 kPa | 755.23
403.15 K, 440 kPa | 584.83
403.15 K, 1000 kPa | 589.82
403.15 K, 2500 kPa | 614.07
403.15 K, 4000 kPa | 637.32
403.15 K, 5500 kPa | 659.57
403.15 K, 7000 kPa | 680.82
403.15 K, 8500 kPa | 701.07
403.15 K, 10000 kPa | 720.33
413.15 K, 570 kPa | 542.3
413.15 K, 1000 kPa | 544.74
413.15 K, 2500 kPa | 570.98
413.15 K, 4000 kPa | 596.12
413.15 K, 5500 kPa | 620.17
413.15 K, 7000 kPa | 643.12
413.15 K, 8500 kPa | 664.98
413.15 K, 10000 kPa | 685.74
423.15 K, 730 kPa | 499.06
423.15 K, 2500 kPa | 527.62
423.15 K, 4000 kPa | 554.78
423.15 K, 5500 kPa | 580.74
423.15 K, 7000 kPa | 605.52
423.15 K, 8500 kPa | 629.1
423.15 K, 10000 kPa | 651.49
